Holding throughout (format): cell-based
Test [1] relates to SARS-CoV-2 (USA-WA1/2020 variant). Kind of test: Virus CPE assay in Vero-E6 cells, USA-WA1/2020. The note with it: for EC50: USA-WA1/2020, Vero-E6, 4 days, read-out: EC50, inhibition of CPE; for inhibition at 3 µM: single treatment at 3 μM.
Test [2] concerns SARS-CoV-2 B.1.1.7/Alpha variant. In words: Virus CPE assay in Vero-E6 cells, B.1.1.7. The conditions noted are these: Severe acute respiratory syndrome coronavirus 2, Vero C1008, 96 h; B.1.1.7, Vero-E6, 4 days; read-out: EC50, inhibition of CPE.
Test [3] has as its system SARS-CoV-2 B.1.351/Beta variant. Kind of test: Virus CPE assay in Vero-E6 cells, B.1.351. The note with it: Severe acute respiratory syndrome coronavirus 2, Vero C1008, 96 h; B.1.351, Vero-E6, 4 days; read-out: EC50, inhibition of CPE.
Setting [4] is: Severe acute respiratory syndrome coronavirus 2, Vero C1008, 96 h.
[5] abbreviates: Severe acute respiratory syndrome coronavirus 2, Vero C1008, 5 experiments of 8-fold replicates, read-out: percent of wells with CPE inhibited.

Structures are written as SMILES. Where two headings read alike, the source gives them in different places.

Turning to `O=C(CN1C(=O)[C@@H](NC(=O)OCc2ccccc2)COc2ccccc21)N[C@@H](C[C@@H]1CCNC1=O)C(=O)COC(=O)c1c(Cl)cccc1Cl` [AP-8-013, (S)-3-(2-((S)-3-(benzyloxycarbonylamino)-4-oxo-3,4-dihydrobenzo[b][1,4]oxazepin-5(2H)-yl)acetamido)-2-oxo-4-((S)-2-oxopyrrolidin-3-yl)butyl 2,6-dichlorobenzoate], the results for the concentration for a half-maximal effect (EC50) in test [1] (setting [4]), in test [2] and in test [3] were 12.8 ± 1.6 µM, 10.6 ± 1 µM and 5.5 ± 0.4 µM, respectively. Moreover, the inhibition at 3 µM in test [1] (setting [5]) was determined as 7.5%.
For `CC(C)C[C@H](NC(=O)OCc1ccccc1)C(=O)N[C@@H](C[C@@H]1CCNC1=O)C(O)S(=O)(=O)O` (stereo partly drawn) [GC-376], the EC50 (in general, the concentration that produces a half-maximal response) was determined as 3.4 ± 0.9 µM in test [1] (setting [4]), 3.3 ± 1.2 µM in test [1] and 1.3 ± 0.6 µM in test [2].
For the compound `CCC(CC)COC(=O)[C@H](C)N[P@](=O)(OC[C@H]1O[C@@](C#N)(c2ccc3c(N)ncnn23)[C@H](O)[C@@H]1O)Oc1ccccc1` [Remdesivir], the EC50 in test [1] (setting [4]) was 3.1 ± 0.7 µM. Moreover, the inhibition at 1 µM in test [1] (Severe acute respiratory syndrome coronavirus 2, Vero C1008, single treatment at 1 μM, 5 experiments of 8-fold replicates, read-out: percent of wells with CPE inhibited) was 2.5 ± 2.5%. Also, the inhibition at 3 µM in test [1] (setting [5]) turned out to be 15 ± 9.2%.
Consider `O=C(CN1C(=O)[C@@H](NC(=O)c2ccccc2)COc2ccccc21)N[C@@H](C[C@@H]1CCNC1=O)C(=O)COC(=O)c1c(Cl)cccc1Cl` [AP-8-011, (S)-3-(2-((S)-3-benzamido-4-oxo-3,4-dihydrobenzo[b][1,4]oxazepin-5(2H)-yl)acetamido)-2-oxo-4-((S)-2-oxopyrrolidin-3-yl)butyl 2,6-dichlorobenzoate], for which, in test [1] (setting [4]), the EC50 was found to be 14.1 ± 3.6 µM.
On the same count and under the same terms, the value for `COc1cccc2[nH]c(C(=O)N[C@@H](CC(C)C)C(=O)N[C@@H](C[C@@H]3CCNC3=O)C(=O)COC(=O)c3c(Cl)cccc3Cl)cc12` [AP-8-001, reference compound] was 1.2 ± 0.3 µM.
